Results published in ChEMBL document CHEMBL4765285, “Discovery of orally active indirubin-3'-oxime derivatives as potent type 1 FLT3 inhibitors for acute myeloid leukemia” (Eur J Med Chem, 2020).
Calls of active or inactive are those of the source. The calls are words filed in the database; no cut-off is given here.

Experiments:
[1] = target: T1, Receptor-type tyrosine-protein kinase FLT3 (Homo sapiens, UniProt P36888)
T1 sequence (P36888 whole entry): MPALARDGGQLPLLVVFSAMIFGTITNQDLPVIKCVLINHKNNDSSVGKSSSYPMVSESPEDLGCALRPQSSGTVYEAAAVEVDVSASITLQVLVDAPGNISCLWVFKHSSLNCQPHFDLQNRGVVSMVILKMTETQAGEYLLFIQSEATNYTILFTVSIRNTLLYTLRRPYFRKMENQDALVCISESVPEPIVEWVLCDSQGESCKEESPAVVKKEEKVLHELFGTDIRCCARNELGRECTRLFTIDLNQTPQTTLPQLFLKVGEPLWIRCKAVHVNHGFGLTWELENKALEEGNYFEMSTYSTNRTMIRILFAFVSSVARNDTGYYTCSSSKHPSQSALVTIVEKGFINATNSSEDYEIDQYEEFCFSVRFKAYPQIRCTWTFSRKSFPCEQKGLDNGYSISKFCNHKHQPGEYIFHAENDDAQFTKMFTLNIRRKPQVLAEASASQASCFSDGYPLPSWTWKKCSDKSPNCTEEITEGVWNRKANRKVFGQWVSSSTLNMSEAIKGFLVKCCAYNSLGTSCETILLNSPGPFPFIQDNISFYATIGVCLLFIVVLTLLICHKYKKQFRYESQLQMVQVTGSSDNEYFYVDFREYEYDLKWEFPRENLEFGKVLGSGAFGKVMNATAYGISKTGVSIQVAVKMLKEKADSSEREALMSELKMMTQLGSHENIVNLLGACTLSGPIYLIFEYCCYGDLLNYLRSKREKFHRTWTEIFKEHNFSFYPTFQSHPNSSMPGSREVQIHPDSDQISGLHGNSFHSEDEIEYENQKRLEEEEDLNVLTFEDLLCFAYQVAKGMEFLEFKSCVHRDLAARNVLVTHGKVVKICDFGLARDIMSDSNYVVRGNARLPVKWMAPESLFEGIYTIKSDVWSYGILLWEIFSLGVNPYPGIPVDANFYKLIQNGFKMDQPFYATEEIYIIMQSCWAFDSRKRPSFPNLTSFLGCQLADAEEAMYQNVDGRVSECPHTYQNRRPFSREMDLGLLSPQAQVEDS
Description: Inhibition of recombinant His-tagged human FLT3 expressed in baculovirus expression system using peptide substrate incubated for 30 mins in presence of ATP by HTRF assay

[2] = system: MV4-11; assay: cells; conditions: Homo sapiens, MV4-11, 72 h
Description: Antiproliferative activity against human MV4-11 cells assessed as cell growth inhibition after 72 hrs by WST assay

[3] = Oral bioavailability in ICR mouse at 10 mg/kg measured up to 1440 mins by LC-MS/MS analysis; assay type: ADME, organism-based; conditions: in vivo
[4] = AUClast in ICR mouse at 10 mg/kg, iv or po measured up to 1440 mins by LC-MS/MS analysis; assay type: ADME, organism-based; design: dose 10 mg/kg, time <=1440; conditions: in vivo
[5] = Cmax in ICR mouse at 10 mg/kg, iv or po measured up to 1440 mins by LC-MS/MS analysis; assay type: ADME, organism-based; design: dose 10 mg/kg, time <=1440; conditions: in vivo
[6] = system: MV4-11; assay: Antitumor activity against human MV4-11 cells xenografted in BALB/c nu/nu mouse assessed as reduction in tumor volume at 20 mg/kg, po administered once daily for 21 days measured twice daily during compound dosing; assay type: functional, organism-based; conditions: time 21.0 day
[7] = Toxicity in BALB/c nu/nu mouse xenografted with human MV4-11 cells assessed as body weight loss at 20 mg/kg, po administered for 21 days; assay type: organism-based; conditions: in vivo, 504 h, time 21 day
[8] = system: MV4-11; assay: Antiproliferative activity against human MV4-11 cells assessed as growth inhibition after 72 hrs; assay type: functional
[9] = Clearance in ICR mouse at 10 mg/kg, iv or po measured up to 1440 mins by LC-MS/MS analysis; assay type: ADME, organism-based; conditions: in vivo
[10] = Half-life in ICR mouse at 10 mg/kg, iv or po measured up to 1440 mins by LC-MS/MS analysis; assay type: ADME, organism-based; conditions: in vivo
[11] = system: MV4-11; assay: Antiproliferative activity against human MV4-11 cells assessed as cell growth inhibition by Celltiter-Glo luminescent assay; assay type: functional
[12] = system: K562; assay: Antiproliferative activity against human K562 cells assessed as cell growth inhibition by WST assay; assay type: functional
[13] = system: MOLM-14; assay: cells; conditions: Homo sapiens
Description: Antiproliferative activity against wild type human MOLM14 cells assessed as cell growth inhibition by MTT assay

[14] = system: MOLM-14; assay: cells; conditions: Homo sapiens; remark: listed apart in the source
Description: Antiproliferative activity against human MOLM14 cells harboring ITD mutant assessed as cell growth inhibition by MTT assay

[15] = system: MOLM-14; assay: cells; conditions: Homo sapiens; remark: listed apart in the source
Description: Antiproliferative activity against human MOLM14 cells harboring ITD/D835Y mutant assessed as cell growth inhibition by MTT assay

[16] = system: MOLM-14; assay: cells; conditions: Homo sapiens; remark: listed apart in the source
Description: Antiproliferative activity against human MOLM14 cells harboring ITD/F691L mutant assessed as cell growth inhibition by MTT assay

[17] = system: A549; assay: cells; conditions: Homo sapiens, A549, read-out: INH
Description: Antiproliferative activity against human A549 cells assessed as cell growth inhibition at 1 uM by WST assay relative to control

[18] = system: HepG2; assay: cells; conditions: Homo sapiens
Description: Antiproliferative activity against human HepG2 cells assessed as cell growth inhibition by WST assay

[19] = system: MDA-MB-231; assay: cells; conditions: Homo sapiens, MDA-MB-231, read-out: INH
Description: Antiproliferative activity against human MDA-MB-231 cells assessed as cell growth inhibition at 1 uM by WST assay relative to control

[20] = system: HCT-116; assay: cells; conditions: Homo sapiens, HCT-116, read-out: INH
Description: Antiproliferative activity against human HCT-116 cells assessed as cell growth inhibition at 1 uM by WST assay relative to control

[21] = system: PC-3; assay: cells; conditions: Homo sapiens, PC-3, read-out: INH
Description: Antiproliferative activity against human PC3 cells assessed as cell growth inhibition at 1 uM by WST assay relative to control

[22] = system: SK-OV-3; assay: cells; conditions: Homo sapiens, SK-OV-3, read-out: INH
Description: Antiproliferative activity against human SK-OV-3 cells assessed as cell growth inhibition at 1 uM by WST assay relative to control

Row | SMILES | IC50 [1] | GI50 [2] | other results
1 | COc1ccc2c(c1)/C(=C1/Nc3ccccc3/C1=N\OCCN1CCN(C)CC1)C(=O)N2 | 0.0021 µM | 0.02 µM | –
2 | Cl.NCCO/N=C1/C(=C2/C(=O)Nc3ccc([N+](=O)[O-])cc32)Nc2ccc(O)cc21 | 0.0086 µM | 0.0953 µM | bioavailability [3]: 0%
3 | CN1CCN(CCO/N=C2/C(=C3/C(=O)Nc4ccc(F)cc43)Nc3ccc(F)cc32)CC1 | 0.027 µM | 0.0315 µM | –
4 | Cl.O=C1Nc2ccccc2/C1=C1/Nc2ccccc2/C1=N\OCCN1CCNCC1 | 0.0027 µM | – | bioavailability [3]: 51%; AUC(0-t) at 24 h [4]: 1.2 µg·h/mL; Cmax [5]: 0.0697 µg/mL; Activity [6]: Active; Activity [7]: Non-Toxic
5 | O=C1Nc2ccc([N+](=O)[O-])cc2/C1=C1/Nc2ccc(O)cc2/C1=N\OCCBr | 0.324 µM | 0.47 µM | –
6 | O=C1Nc2ccc(OC(F)(F)F)cc2/C1=C1/Nc2ccccc2/C1=N\OCCN1CCNCC1 | 0.0402 µM | 0.017 µM | –
7 | O=C1Nc2ccccc2/C1=C1/Nc2ccccc2/C1=N\OCCNC1CCNCC1 | 0.0209 µM | 0.0151 µM | –
8 | CN1CCN(CCO/N=C2/C(=C3/C(=O)Nc4ccc(F)cc43)Nc3ccccc32)CC1 | 0.0033 µM | 0.0111 µM | –
9 | O=C1Nc2ccc(F)cc2/C1=C1/Nc2ccccc2/C1=N\OCCN1CCCCC1 | 0.142 µM | 0.263 µM | –
10 | CN1CCN(CCO/N=C2/C(=C3/C(=O)Nc4ccc([N+](=O)[O-])cc43)Nc3ccc(O)cc32)CC1 | 0.0189 µM | 0.05 µM | –
11 | O=C1Nc2ccc(F)cc2/C1=C1/Nc2ccc(F)cc2/C1=N\OCCN1CCOCC1 | 0.0983 µM | 0.116 µM | –
12 | CN1CCN(CCO/N=C2/C(=C3/C(=O)Nc4ccc([N+](=O)[O-])cc43)Nc3ccc(F)cc32)CC1 | 0.0312 µM | 0.118 µM | –
13 | O=C1Nc2ccc([N+](=O)[O-])cc2/C1=C1/Nc2ccc(F)cc2/C1=N\OCCN1CCNCC1 | 0.0276 µM | 0.0102 µM | –
14 | O=C1Nc2ccc(F)cc2/C1=C1/Nc2ccc(F)cc2/C1=N\OCCN1CCCC1 | 0.116 µM | 0.634 µM | –
15 | COC(=O)c1ccc2c(c1)/C(=C1/Nc3ccccc3/C1=N\OCCN1CCNCC1)C(=O)N2 | – | – | bioavailability [3]: 1.43%; GI50 [8]: 0.001 µM
16 | Cl.O=C1Nc2ccc([N+](=O)[O-])cc2/C1=C1/Nc2ccccc2/C1=N\OCCN1CCNCC1 | 0.0132 µM | 0.00701 µM | bioavailability [3]: 1.33%; clearance [9]: 6.48 L/h/kg
17 | Cl.O=C1Nc2ccc([N+](=O)[O-])cc2/C1=C1/Nc2ccc(O)cc2/C1=N\OCCN1CCNCC1 | 0.0122 µM | 0.0265 µM | bioavailability [3]: 0%; clearance [9]: 4.22 L/h/kg
18 | Cl.O=C1Nc2ccc(F)cc2/C1=C1/Nc2ccc(F)cc2/C1=N\OCCNC1CCNCC1 | 0.0116 µM | 0.00847 µM | bioavailability [3]: 15.3%; half-life [10]: 9.2 h; clearance [9]: 13.9 L/h/kg
19 | O=C1Nc2ccc(F)cc2/C1=C1/Nc2ccccc2/C1=N\OCCN1CCCC1 | 0.257 µM | 0.212 µM | –
20 | O=C1Nc2ccccc2/C1=C1/Nc2ccccc2/C1=N\OCCN1CCCC1 | 0.0413 µM | 0.104 µM | –
21 | O=C1Nc2ccc([N+](=O)[O-])cc2/C1=C1/Nc2ccc(O)cc2/C1=N\O | – | 0.133 µM | –
22 | O=C1Nc2ccc(F)cc2/C1=C1/Nc2ccc(F)cc2/C1=N\OCCN1CCCCC1 | 0.045 µM | 0.105 µM | –
23 | O=C1Nc2ccc([N+](=O)[O-])cc2/C1=C1/Nc2ccc(O)cc2/C1=N\OCCN1CCOCC1 | 0.345 µM | 0.1 µM | –
24 | CN1CCN(CCO/N=C2/C(=C3/C(=O)Nc4ccccc43)Nc3ccccc32)CC1 | 0.00929 µM | 0.0548 µM | –
25 | CN1CCN(CCO/N=C2/C(=C3/C(=O)Nc4ccc(OC(F)(F)F)cc43)Nc3ccccc32)CC1 | 0.00562 µM | 0.007 µM | –
26 | CCc1nc(C(N)=O)c(Nc2ccc(N3CCC(N4CCN(C)CC4)CC3)c(OC)c2)nc1NC1CCOCC1 [GILTERITINIB] | – | – | GI50 [11]: 0.0009 µM; GI50 [12]: 1.01 µM; GI50 [13]: 0.00494 µM; GI50 [14]: 0.00329 µM; GI50 [15]: 0.00191 µM; GI50 [16]: 0.00524 µM; inhibition at 1 µM [17]: 4.05%; GI50 [18]: 2.2 µM; inhibition at 1 µM [19]: 42.1%; inhibition at 1 µM [20]: 45.1%; inhibition at 1 µM [21]: 41.8%; inhibition at 1 µM [22]: 23.3%
27 | Cl.O=C1Nc2ccc(F)cc2/C1=C1/Nc2ccc(F)cc2/C1=N\OCCN1CCNCC1 | 0.0158 µM | 0.0083 µM | bioavailability [3]: 16.7%; half-life [10]: 3.4 h; clearance [9]: 1.69 L/h/kg
28 | O=C1Nc2ccccc2/C1=C1/Nc2ccccc2/C1=N\OCCN1CCCCC1 | 0.128 µM | 0.138 µM | –
29 | O=C1Nc2ccc(F)cc2/C1=C1/Nc2ccccc2/C1=N\OCCNC1CCNCC1 | 0.00947 µM | 0.0119 µM | –
30 | COc1ccc2c(c1)/C(=C1/Nc3ccccc3/C1=N\OCCN1CCNCC1)C(=O)N2 | 0.0124 µM | 0.022 µM | –
